Experimental data from US9079886B2, “Substituted triazole derivatives as gamma secretase modulators” (Janssen Pharmaceuticals, Inc., priority 2010, dated 2015).
Counter-ions that a name gives are not always drawn. Like-named read-outs stand apart in the source and are kept apart here.

Experiments:
[1] = tested on: Aβ42 and Aβtotal in the soluble fraction of brain homogenates; test: In vivo Aβ42 lowering: brain soluble Aβ42 and Aβtotal by ELISA after a single oral dose; set-up: species or system mouse; conditions: dose 30 mg/kg oral dosing, 4 h after dosing; for response vs control in vivo at 30 mg/kg: Mus musculus, po, 4 h
Excerpt: To determine whether acute administration of an Aβ42 lowering agent would reduce Aβ42 levels in vivo, non-transgenic rodents, e.g. mice or rats were used. Animals treated with the Aβ42 lowering agent were examined and compared to those untreated or treated with vehicle and brain levels of soluble Aβ42 and total A13 were quantitated by standard techniques, for example, using ELISA. Treatment periods varied from hours (h) to days and were adjusted based on the results of the Aβ42 lowering once a time course of onset of effect could be established.
A typical protocol for measuring Aβ42 lowering in vivo is shown but it is only one of many variations that could be used to optimize the levels of detectable Aβ. For example, Aβ42 lowering compounds were formulated in 20% of Captisol® (a sulfobutyl ether of β-cyclodextrin) in water or 20% hydroxypropyl β cyclodextrin. The Aβ42 lowering agents were administered as a single oral dose or by any acceptable route of administration to overnight fasted animals. After 4 h, the animals were sacrificed and Aβ42 levels were analysed.
Blood was collected by decapitation and exsanguinations in EDTA-treated collection tubes. Blood was centrifuged at 1900 g for 10 minutes (min) at 4° C. and the plasma recovered and flash frozen for later analysis. The brain was removed from the cranium and hindbrain. The cerebellum was removed and the left and right hemisphere were separated. The left hemisphere was stored at −18° C. for quantitative analysis of test compound levels. The right hemisphere was rinsed with phosphate-buffered saline (PBS) buffer and immediately frozen on dry ice and stored at −80° C. until homogenization for biochemical assays.
Mouse brains from non-transgenic animals were resuspended in 8 volumes of 0.4% DEA (diethylamine)/50 mM NaCl containing protease inhibitors (Roche-11873580001 or 04693159001) per gram of tissue, e.g. for 0.158 g brain, add 1.264 ml of 0.4% DEA. All samples were homogenized in the FastPrep-24 system (MP Biomedicals) using lysing matrix D (MPBio #6913-100) at 6 m/s for 20 seconds. Homogenates were centrifuged at 221.300×g for 50 min. The resulting high speed supernatants were then transferred to fresh eppendorf tubes. Nine parts of supernatant were neutralized with 1 part 0.5 M Tris-HCl pH 6.8 and used to quantify Aβtotal and Aβ42.
To quantify the amount of Aβtotal and Aβ42 in the soluble fraction of the brain homogenates, Enzyme-Linked-Immunosorbent-Assays were used. Briefly, the standards (a dilution of synthetic Aβ1-40 and Aβ-42, Bachem) were prepared in 1.5 ml Eppendorf tube in Ultraculture, with final concentrations ranging from 10000 to 0.3 pg/ml. The samples and standards were co-incubated with HRPO-labelled N-terminal antibody for Aβ42 detection and with the biotinylated mid-domain antibody 4G8 for Aβtotal detection. 50 μl of conjugate/sample or conjugate/standards mixtures were then added to the antibody-coated plate (the capture antibodies selectively recognize the C-terminal end of Aβ42, antibody JRF/cAB42/26, for Aβ42 detection and the N-terminus of Aβ, antibody JRF/rAβ/2, for Aβtotal detection). The plate was allowed to incubate overnight at 4° C. in order to allow formation of the antibody-amyloid complex. Following this incubation and subsequent wash steps the ELISA for Aβ42 quantification was finished by addition of Quanta Blu fluorogenic peroxidase substrate according to the manufacturer's instructions (Pierce Corp., Rockford, Il). A reading was performed after 10 to 15 min (excitation 320 nm/emission 420 nm).
For Aβtotal detection, a Streptavidine-Peroxidase-Conjugate was added, followed 60 min later by an addional wash step and addition of Quanta Blu fluorogenic peroxidase substrate according to the manufacturer's instructions (Pierce Corp., Rockford, Il). A reading was performed after 10 to 15 min (excitation 320 nm/emission 420 nm). […]

[2] = untreated animals (Ctrl) set at 100, read-out: Aβ42 (% vs Ctrl) _Mean
[3] = untreated animals (Ctrl) set at 100, read-out: Aβtotal (% vs Ctrl)_Mean
[4] = untreated animals (Ctrl) set at 100, 30 mg/kg

Work on `COc1cc(Nc2nc(OC3CCCC(C(F)(F)F)C3)n(C(C)C)n2)ccc1-c1ccnc(C)c1` (centres unmarked) (as salt: HCl) (hydrate or solvate) [Compound 117] yielded a melting point of 131.5 °C.

With `COc1cc(Nc2nc(N3CCCC(C(F)(F)F)C3)n(C(C)C)n2)ccc1-n1cnc(C)n1` (racemic) [Compound 59] the melting point was 134 °C, the response vs control in vivo at 30 mg/kg [1, 2] was 69% and the response vs control in vivo at 30 mg/kg [1, 3] was 94%.

In the case of `COc1cc(Nc2nc(N3CCCC(C(F)(F)F)C3)n(C(C)C)n2)ccc1-n1cnc(C)n1` (single isomer, unassigned) [Compound 108], the melting point is reported as 141.6 °C, the response vs control in vivo at 30 mg/kg [1, 2] is reported as 70% and the “Aβtotal (% vs Ctrl)_Mean” value [1, 4] is reported as 94 % vs Ctrl.

In the case of `COc1cc(Nc2nc(N3CCCC(C(F)(F)F)C3)n(C(C)C)n2)ccc1-n1cnc(C)n1` (single isomer, unassigned) [Compound 109], the melting point is reported as 140.1 °C, the “Aβ42 (% vs Ctrl) _Mean” value [1, 4] is reported as 85 % vs Ctrl and the “Aβtotal (% vs Ctrl)_Mean” value [1, 4] is reported as 117 % vs Ctrl.

Compound `COc1cc(Nc2nc(Cc3cccc(C(F)(F)F)c3)n(CCNC(C)=O)n2)ccc1-n1cnc(C)c1` [Compound 1] has a melting point of 179 °C.

For `COc1cc(Nc2nc(N3CCCC(C(F)(F)F)C3)n(C)n2)ccc1-n1cnc(C)c1` (centres unmarked) [Compound 2], the melting point was 199.9 °C.

`COc1cc(Nc2nc(Oc3ccccc3Cl)n(C(C)C)n2)ccc1-n1cnc(C)n1` [Compound 4] showed a melting point of 202.7 °C.

In the case of `COc1cc(Nc2nc(Oc3cccc(Cl)c3C)n(C(C)C)n2)ccc1-n1cnc(C)n1` [Compound 8], the melting point is reported as 157.2 °C.

Work on `COc1cc(NC(=O)c2nc(Oc3ccc(F)cc3C)n(C(C)C)n2)ccc1-n1cnc(C)c1` [Compound 9] yielded a melting point of 158.4 °C.

Compound `COc1nc(Nc2nc(-c3cccc(C(F)(F)F)c3)n(C(C)C)n2)ccc1-n1cnc(C)c1` [Compound 17] has a melting point of 185.1 °C.

With `COc1cc(Nc2nc(N3CCCC(c4ccccc4)C3)n(C(C)C)n2)ccc1-n1cnc(C)c1` (centres unmarked) [Compound 18] the melting point was 164.2 °C.

Work on `COc1cc(Nc2nc(Oc3ccccc3Cl)n(C)n2)ccc1-n1cnc(C)c1` [Compound 51] yielded a melting point of 210.1 °C.

Work on `COc1cccc(C2CCN(c3nc(Nc4ccc(-n5cnc(C)c5)c(OC)c4)nn3C(C)C)C2)c1` (centres unmarked) [Compound 53] yielded a melting point of 169.9 °C.

`COc1cc(Nc2nc(N3C[C@@H](C)O[C@@H](C)C3)n(C(C)C)n2)ccc1-n1cnc(C)c1` [Compound 55] showed a melting point of 189.4 °C.

With `COc1cc(Nc2nc(N3CCc4ccccc4C3)n(C)n2)ccc1-n1cnc(C)c1` [Compound 56] the melting point was 170.1 °C.

`COc1cc(Nc2nc(N3CCc4ccccc4C3)n(C(C)C)n2)ccc1-n1cnc(C)c1` [Compound 57] showed a melting point of 214.5 °C.

Work on `COc1cc(Nc2nc(N3CCOC(c4cccc(C)c4)C3)n(C(C)C)n2)ccc1-n1cnc(C)c1` (centres unmarked) [Compound 58] yielded a response vs control in vivo at 30 mg/kg [1, 2] of 88% and a response vs control in vivo at 30 mg/kg [1, 3] of 89%.

With `Cc1cc(-c2ccc(Nc3nc(-c4cccc(C(F)(F)F)c4)n(C)n3)cc2)ccn1` [Compound 60] the melting point was 184.2 °C.

Compound `COc1cc(Nc2nc(Oc3ccccc3Cl)n(C)n2)ccc1-c1ccnc(C)c1` [Compound 61] has a melting point of 175 °C.

`COc1cc(Nc2nc(N3CCCC(C(F)(F)F)C3)n(C(C)C)n2)ccc1-c1ccnc(C)c1` (centres unmarked) [Compound 67] showed a response vs control in vivo at 30 mg/kg [1, 2] of 60% and a response vs control in vivo at 30 mg/kg [1, 3] of 89%.

Compound `COc1cc(Nc2nc(Oc3ccccc3Cl)n(C(C)C)n2)ccc1-c1ccnc(C)c1` [Compound 69] has a response vs control in vivo at 30 mg/kg [1, 2] of 63% and a response vs control in vivo at 30 mg/kg [1, 3] of 97%.

With `Cc1cc(F)ccc1Oc1nc(Nc2ccc(-c3ccncc3)cc2)nn1C(C)C` [Compound 112] the melting point was 204.1 to 205.4 °C.

Work on `Cn1nc(Nc2ccc(-c3ccncc3)cc2)nc1-c1cccc(C(F)(F)F)c1` [Compound 113] yielded a melting point of 220.7 °C.

`COc1cc(Nc2nc(N3CCN(C(=O)OC(C)(C)C)CC3)n(C(C)C)n2)ccc1-c1ccnc(C)c1` [Compound 132] gave a melting point of 177.1 °C.

For `Cc1cc(-c2ccc(Nc3nc(N4CCOC(C(F)(F)F)C4)n(C(C)C)n3)cc2)ccn1` (centres unmarked) [Compound 133], the response vs control in vivo at 30 mg/kg [1, 2] was 67% and the response vs control in vivo at 30 mg/kg [1, 3] was 94%.

In the case of `COc1cc(Nc2nc(-c3cccc(C(F)(F)F)c3)n(C(C)C)n2)ccc1-c1ccnc(C)c1` [Compound 136], the melting point is reported as 221.9 °C.

`Cc1cc(-c2ccc(Nc3nc(-c4cccc(C(F)(F)F)c4)n(C(C)C)n3)cc2)ccn1` [Compound 137] showed a melting point of 210.3 °C.

Work on `Cc1cc(-c2ccc(Nc3nc(-c4cccc(C(F)(F)F)c4)n(C(C)C)n3)cc2F)ccn1` [Compound 138] yielded a melting point of 199.6 °C.

With `Cc1cc(-c2ccc(Nc3nc(Oc4ccccc4Cl)n(C(C)C)n3)cc2F)ccn1` [Compound 141] the response vs control in vivo at 30 mg/kg [1, 2] was 78% and the response vs control in vivo at 30 mg/kg [1, 3] was 98%.

`COc1cc(Nc2nc(Oc3ccccc3Cl)n(CC(OC)OC)n2)ccc1-c1ccnc(C)c1` [Compound 147] showed a melting point of 90.1 °C.

`COc1cc(Nc2nc(Oc3ccccc3Cl)n(CCNC(C)C)n2)ccc1-c1ccnc(C)c1` [Compound 149] gave a melting point of 138.6 °C.

For `Cc1cc(-c2ccc(Nc3nc(Oc4c(C)cccc4Cl)n(C(C)C)n3)cc2)ccn1` [Compound 155], the melting point was 222.6 °C.

In the case of `Cc1cc(-c2ccc(Nc3nc(Oc4cccc(Cl)c4C)n(C(C)C)n3)cc2)ccn1` [Compound 157], the melting point is reported as 159.6 °C.

For `COc1cc(Nc2nc(Oc3cccc(Cl)c3)n(C(C)C)n2)ccc1-c1ccnc(C)c1` [Compound 158], the melting point was 125.4 °C.

With `COc1cc(Nc2nc(Oc3c(F)cccc3Cl)n(C(C)C)n2)ccc1-c1ccnc(C)c1` [Compound 160] the response vs control in vivo at 30 mg/kg [1, 2] was 77% and the response vs control in vivo at 30 mg/kg [1, 3] was 83%.

For `Cc1cc(-c2ccc(Nc3nc(Oc4cc(F)ccc4Cl)n(C(C)C)n3)cc2)ccn1` [Compound 161], the melting point was 132.7 °C.

`COc1cc(Nc2nc(Oc3ccc(F)cc3C)n(C(C)C)n2)ccc1-c1ccnc(C)c1` [Compound 163] gave a melting point of 172.7 °C.

Work on `Cc1cc(-c2ccc(Nc3nc(Oc4ccc(F)cc4C)n(C(C)C)n3)cc2)ccn1` [Compound 164] yielded a melting point of 138.9 °C.

Compound `COc1cc(Nc2nc(Oc3ccccc3C(F)(F)F)n(C)n2)ccc1-c1ccnc(C)c1` [Compound 166] has a melting point of 159.6 °C.

`COc1cc(Nc2nc(Oc3cc(C(F)(F)F)ccc3F)n(C)n2)ccc1-c1ccnc(C)c1` [Compound 168] gave a melting point of 145.1 °C.

Work on `COc1cc(Nc2nc(Oc3ccc(F)cc3C(F)(F)F)n(C(C)C)n2)ccc1-c1ccnc(C)c1` [Compound 169] yielded a melting point of 134.8 °C.

With `COc1cc(Nc2nc(Oc3cccc(N4CCOCC4)c3)n(C(C)C)n2)ccc1-c1ccnc(C)c1` [Compound 171] the melting point was 169.3 °C.

For `COc1cc(Nc2nc(N3CCCN(C(C)=O)CC3)n(C(C)C)n2)ccc1-c1ccnc(C)c1` [Compound 176], the melting point was 158.4 °C.

For `Cc1cc(F)ccc1Oc1nc(Nc2ccc(-c3ccnc(C(F)(F)F)c3)cc2)nn1C(C)C` [Compound 177], the melting point was 165.9 to 166.9 °C.

`Cn1nc(Nc2ccc(-c3ccnc(C(F)(F)F)c3)cc2)nc1-c1cccc(C(F)(F)F)c1` [Compound 178] showed a melting point of 179.2 °C.

Work on `COc1ccc(-c2ccc(Nc3nc(Oc4ccc(F)cc4C)n(C(C)C)n3)cc2)cn1` [Compound 179] yielded a melting point of 142.7 to 144.7 °C.

Work on `COc1cc(-c2ccc(Nc3nc(Oc4ccc(F)cc4C)n(C(C)C)n3)cc2)ccn1` [Compound 180] yielded a melting point of 132.8 to 143.6 °C.
